Reference: patent US6361788B1, “Synergistic biocide composition” (Thor Chemie GmbH, priority 1997, dated 2002)
Where two headings read alike, the source gives them in different places.

Test system: Penicillium funiculosum
Test: MIC and synergy of MIT/BIT (1:1) and BNPD in Sabouraud maltose broth, 72 h
Assay type: cell-based
Settings: for growth of the microorganism: MIT/BIT 0 ppm; for MIC: Talaromyces funiculosus
Method: In all the examples in which an active substance mixture of MIT and BIT as well as additionally a further active biocidal substance was used, the weight ratio of MIT to BIT was 1:1.
The synergy index is calculated according to the method of F. C. Kull et al., Applied Microbiology, Vol. 9 (1961), p. 538. Here the synergy index is calculated using the following formula:
Synergy index SI=Qa/QA+Qb/QB.
The synergy of an active substance that contains 2-bromo-2-nitropropane-1,3-diol (BNPD) in addition to MIT and BIT, against the microorganism Penicillium funiculosum is shown as in Example 1.
The test batches contained a Sabouraud maltose broth as a nutrient medium. The spore concentration was 10^6 per mL. The incubation time was 72 h at 25° C. Each sample was incubated on an incubation shaker at 120 rpm.

[1] = MIT/BIT 0.0% by wt, BNPD 100.0% by wt, 72 h

- MIC (MIT/BIT 0.0% by wt, BNPD 100.0% by wt, 72 h, read-out: MIC at BNPD concentration Qb): 600 µg/mL
- MIC (MIT/BIT 0.0% by wt, BNPD 100.0% by wt, 72 h, read-out: MIC at Total concentration MIT/BIT + BNPD): 600 µg/mL
- MIC (used alone, 72 h at 25° C., read-out: MIC value): 600 µg/mL
Structure (SMILES): O=[N+]([O-])C(Br)(CO)CO [BNPD, 2-bromo-2-nitropropane-1,3-diol]
- Qb/QB [1]: 1.00
- Synergy index Qa/QA + Qb/QB [1]: 1.00
- growth of the microorganism (BNPD 25 ppm, 72 h): +
- growth of the microorganism (BNPD 50 ppm, 72 h): +
- growth of the microorganism (BNPD 100 ppm, 72 h): +
- growth of the microorganism (BNPD 150 ppm, 72 h): +
- growth of the microorganism (BNPD 200 ppm, 72 h): +
- growth of the microorganism (BNPD 300 ppm, 72 h): +
- growth of the microorganism (BNPD 400 ppm, 72 h): +
- growth of the microorganism (BNPD 600 ppm, 72 h): −
- growth of the microorganism (BNPD 800 ppm, 72 h): −
- growth of the microorganism (BNPD 1000 ppm, 72 h): −
